Measured values: patent US9695194B2, “Benzoxazinone derivatives for treatment of skin diseases” (SIXERA PHARMA AB, priority 2014, dated 2017)
pIC50: −log10 of the molar value.

Assays:
Recombinant human KLK7 = Recombinant human KLK7 (Homo sapiens (Human), UniProt P49862); assay: KLK7 assay; type: biochemical; conditions: substrate S-2586, 37° C., pH 7.2
Chymotrypsin, bovine = Chymotrypsin, bovine (Bos taurus (Bovine), UniProt P00766); assay: Chymotrypsin assay; type: biochemical; conditions: substrate S-2586, 37° C., pH 7.2
Method: Materials: Chymotrypsin, bovine, 25 μg (Roche, sequence grade), Substrate S-2586 (Chromogenics, cat. no. 82 08 94)

Trypsin = Trypsin (Bos taurus (Bovine), UniProt P00760); assay: Trypsin assay; type: biochemical, human; conditions: substrate S-2288, 37° C., pH 7.2
Cathepsin G = Cathepsin G (Homo sapiens (Human), UniProt P08311); assay: Cathepsin G assay
Method: (§1) IC50 values for a number of substituted 3,1-benzoxazin-4-ones on a panel of human proteases were determined.

Recombinant human KLK5 = Recombinant human KLK5 (Homo sapiens (Human), UniProt Q9Y337); assay: KLK5 assay
Recombinant human KLK5, sequence (Q9Y337 23-293): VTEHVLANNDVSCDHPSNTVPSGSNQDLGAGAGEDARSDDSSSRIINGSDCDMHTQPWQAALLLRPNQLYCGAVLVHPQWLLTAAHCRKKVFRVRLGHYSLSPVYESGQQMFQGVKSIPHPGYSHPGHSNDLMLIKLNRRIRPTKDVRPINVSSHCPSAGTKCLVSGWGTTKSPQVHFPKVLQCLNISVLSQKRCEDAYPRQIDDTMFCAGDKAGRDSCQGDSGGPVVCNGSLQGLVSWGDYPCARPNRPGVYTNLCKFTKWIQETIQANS
Method: as §1

Cathepsin G, sequence (P08311 21-255): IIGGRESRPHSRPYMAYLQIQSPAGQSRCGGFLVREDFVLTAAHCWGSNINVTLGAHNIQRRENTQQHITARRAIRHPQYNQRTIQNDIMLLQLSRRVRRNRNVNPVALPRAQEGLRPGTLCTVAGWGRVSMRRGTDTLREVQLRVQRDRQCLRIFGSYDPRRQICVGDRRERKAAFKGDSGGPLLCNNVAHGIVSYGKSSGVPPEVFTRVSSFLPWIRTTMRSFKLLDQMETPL
Recombinant human KLK7, sequence (P49862 30-253): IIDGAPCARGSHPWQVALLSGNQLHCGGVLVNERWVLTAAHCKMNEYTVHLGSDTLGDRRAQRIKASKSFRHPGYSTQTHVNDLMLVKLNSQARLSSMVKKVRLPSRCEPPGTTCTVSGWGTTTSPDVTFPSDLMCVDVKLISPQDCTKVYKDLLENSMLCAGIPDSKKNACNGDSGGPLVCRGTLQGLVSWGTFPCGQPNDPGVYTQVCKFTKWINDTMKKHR
Trypsin, sequence (P00760 24-246): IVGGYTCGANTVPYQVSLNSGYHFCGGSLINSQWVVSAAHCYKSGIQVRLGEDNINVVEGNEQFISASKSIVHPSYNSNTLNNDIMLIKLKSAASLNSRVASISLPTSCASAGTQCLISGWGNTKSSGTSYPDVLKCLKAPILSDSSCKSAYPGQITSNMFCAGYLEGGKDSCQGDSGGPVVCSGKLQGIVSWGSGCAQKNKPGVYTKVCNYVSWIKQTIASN

SMILES | pIC50 (Recombinant human KLK7) | pIC50 (Chymotrypsin, bovine) | pIC50 (Trypsin) | pIC50 (Cathepsin G) | pIC50 (Recombinant human KLK5)
COC1=CC=C(c2nc3cc4c(cc3c(=O)o2)OCCO4)C(OC)C1 (stereo not drawn) [Compound 15] | 6.98 | > 7.00 | 5.43 |  | 
CCOc1cc2c(=O)oc(-c3ccccc3Cl)nc2cc1OC [Compound 2, 2-(2-chlorophenyl)-6-ethoxy-7-methoxy-3,1-benzoxazin-4-one] | 7.14 | < 5.00 | < 5.00 | < 5.00 | 
CCOc1cc2c(=O)oc(-c3ccccc3SC)nc2cc1OC [Compound 1, 6-ethoxy-7-methoxy-2-(2-methylsulfanylphenyl)-3,1-benzoxazin-4-one] | 7.32 | < 5.00 | < 5.00 | < 5.00 | 
CCOc1cc2c(=O)oc(-c3ccccc3OC)nc2cc1OC [Compound 5] | 7.07 | < 5.00 | < 5.00 | 5.92 | 
CS(=O)(=O)c1ccccc1-c1nc2cc3c(cc2c(=O)o1)OCCO3 [Compound 14] | 6.74 | > 7.00 | 5.74 |  | 6.22
COc1cc2nc(-c3ccccc3SC)oc(=O)c2cc1OC [Compound 12] | 6.83 |  | < 5.00 |  | 
O=c1oc(-c2ccccc2Cl)nc2cc3c(cc12)OCCO3 [Compound 16] | 6.83 | > 7.00 | 5.43 |  | 
CC(C)c1ccc(-c2nc3cc4c(cc3c(=O)o2)OCCCO4)c(C(C)C)c1 [Compound 11] | 5.86 | 6.00 | < 5.00 | < 5.00 | 
COc1ccc(-c2nc3cc(OC)c(OC)cc3c(=O)o2)c(OC)c1 [Compound 17] | 6.76 | 5.92 | < 5.00 | 7.00 | 6.00
O=c1oc(-c2ccccc2Cl)nc2cc3c(cc12)OCCCO3 [Compound 7] | 7.05 | > 7.00 | < 5.00 | 5.72 | 
CS(=O)(=O)c1ccccc1-c1nc2cc3c(cc2c(=O)o1)OCCCO3 [Compound 10] | 6.73 | 6.70 | < 5.00 |  | 
CSc1ccccc1-c1nc2cc3c(cc2c(=O)o1)OCCCO3 [Compound 9] | 6.64 |  | < 5.00 | 5.89 | 
COc1ccccc1-c1nc2cc3c(cc2c(=O)o1)OCCO3 [Compound 13] | 6.81 | > 7.00 | 5.74 |  | 
COc1cc2nc(-c3ccccc3I)oc(=O)c2cc1OC [Compound 18] |  | < 5.00 | < 5.00 | 5.72 | 
COc1ccccc1-c1nc2cc3c(cc2c(=O)o1)OCCCO3 [Compound 6] | 7.10 | > 7.00 | < 5.00 |  | 
COc1ccc(-c2nc3cc4c(cc3c(=O)o2)OCCCO4)c(OC)c1 [Compound 8] | 7.19 | > 7.00 | < 5.00 |  | 
CCOc1cc2c(=O)oc(-c3ccc(OC)cc3OC)nc2cc1OC [Compound 3] | 6.94 | < 5.00 | < 5.00 | 5.96 | 
CCOc1cc2c(=O)oc(-c3ccccc3S(C)(=O)=O)nc2cc1OC [Compound 4] | 6.64 | < 5.00 | < 5.00 | 5.55 | 
